Measurements: patent publication US20160287571A1, “PHARMACEUTICAL COMPOSITIONS COMPRISING ANTIBACTERIAL AGENTS” (priority 2013, published 2016)
Where two headings read alike, the source gives them in different places.

Experiments:
Format in all cases: cell-based, Acinetobacter baumannii
[1] = tested on: A. baumannii NCTC 13304 (OXA 51, OXA 27); assay: Time kill study; details: for Bacterial count: agent alone at 8 mcg/ml, initial count 6.06 log CFU/ml
Experimental: (§1) The synergistic killing effect of the combinations according to invention was studied using time kill studies. In a typical time kill study, freshly grown cultures were diluted to the required cell density (initial starting inoculum) in Cation adjusted Muller Hinton broth medium (BD, USA). The antibacterial agents (either alone or in combination) at the required concentrations were added into the culture-containing medium. The samples were incubated under shaking condition (120 rpm) at 37° C. Enumeration of viable bacterial count was done every 2 hour by diluting in normal saline and plating on to the Tryptic Soya Agar plates (BD, USA). The plates were incubated for 24 hours to arrive at the viable bacterial count. The results are expressed in terms of Log CFU per […]. In general, the decrease of 1 Log CFU/ml, corresponds to 90% killing of bacteria. Similarly, 2 Log CFU/ml reductions indicates 99% killing of bacteria and 3 Log CFU/ml reductions is equal to 99.9% killing of bacteria.

[2] = tested on: A. baumannii NCTC 13302 (OXA 51, OXA 25); assay: Time kill study; details: for Bacterial count: agent alone at 8 mcg/ml, initial count 6.54 log CFU/ml
Experimental: as §1

[3] = tested on: A. baumannii NCTC 13304 (OXA 51, OXA 27); assay: MIC in Muller Hinton Agar (CLSI agar dilution); details: Acinetobacter baumannii
Experimental: (§2) The antibacterial activity of combinations according to the invention against resistant bacterial strains was investigated. Minimum Inhibitory Concentration (MIC) for the combinations according to invention was determined in Muller Hinton Agar (MHA) (BD, USA) according to Clinical and Laboratory Standards Institute (CLSI) recommendations (Clinical and Laboratory Standards Institute (CLSI), Performance Standards for Antimicrobial Susceptibility Testing, 20th Informational Supplement, M 100-S20, Volume 30, No. 1, 2010). Typically, the test strains were adjusted to deliver about 10^4 CFU per spot with a multipoint inoculator (Applied Quality Services, UK). The plates were pored with MHA containing doubling concentration range of the test combinations according to invention. The plates were inoculated and were incubated at 35° C. for 18 hours.

[4] = tested on: A. baumannii M 126 (OXA 51, OXA 23); assay: MIC in Muller Hinton Agar (CLSI agar dilution); details: Acinetobacter baumannii
Experimental: as §2

[5] = tested on: A. baumannii J 144 (OXA 51, OXA 23); assay: MIC in Muller Hinton Agar (CLSI agar dilution); details: Acinetobacter baumannii
Experimental: as §2

[6] = tested on: A. baumannii NCTC 13303 (OXA 51, OXA 26); assay: MIC in Muller Hinton Agar (CLSI agar dilution); details: Acinetobacter baumannii
Experimental: as §2

[7] = tested on: A. baumannii NCTC 13305 (OXA 51, OXA 58); assay: MIC in Muller Hinton Agar (CLSI agar dilution); details: Acinetobacter baumannii
Experimental: as §2

[8] = tested on: A. baumannii NCTC 13301 (OXA 51, OXA 23); assay: MIC in Muller Hinton Agar (CLSI agar dilution); details: Acinetobacter baumannii
Experimental: as §2

[9] = tested on: A. baumannii NCTC 13302 (OXA 51, OXA 25); assay: MIC in Muller Hinton Agar (CLSI agar dilution); details: Acinetobacter baumannii
Experimental: as §2

[10] = tested on: A. baumannii Q 1460648 (OXA 51, OXA 23); assay: MIC in Muller Hinton Agar (CLSI agar dilution); details: Acinetobacter baumannii
Experimental: as §2

[11] = tested on: A. baumannii G 156 (OXA 51, OXA 23); assay: MIC in Muller Hinton Agar (CLSI agar dilution); details: Acinetobacter baumannii
Experimental: as §2

CC1(C)[C@H](C(=O)O)N2C(=O)C[C@H]2S1(=O)=O [Sulbactam, sulbactam]
Bacterial count ([1]; 2 hours): 7.73 Log CFU/ml | Bacterial count ([1]; 4 hours): 7.07 Log CFU/ml | Bacterial count ([1]; 6 hours): 8.2 Log CFU/ml | Effect on bacterial counts throughout the duration of the study (in words) ([1]; A. baumannii NCTC 13304, summary of Table 4): did not reduce the bacterial counts | Bacterial count ([2]; 2 hours): 5.74 Log CFU/ml | Bacterial count ([2]; 4 hours): 5.09 Log CFU/ml | Bacterial count ([2]; 6 hours): 6.04 Log CFU/ml | Bacterial count ([2]; 8 hours): 7.46 Log CFU/ml | Effect on bacterial counts throughout the duration of the study (in words) ([2]; A. baumannii NCTC 13302, summary of Table 3): did not reduce the bacterial counts | MIC ([3]; NCTC13304, read-out: MIC of Sulbactam, In presence of Compound of Formula (I) (4 mcg/ml), NCTC 13304): 2 µg/mL | MIC ([3]; NCTC13304, read-out: MIC of Sulbactam, In presence of Compound of Formula (I) (8 mcg/ml), NCTC 13304): 1 µg/mL | MIC ([3]; NCTC13304, agent alone, A. baumannii NCTC 13304): 8 µg/mL | MIC ([4]; read-out: MIC of Sulbactam, In presence of Compound of Formula (I) (4 mcg/ml), M 126): 8 µg/mL | MIC ([4]; read-out: MIC of Sulbactam, In presence of Compound of Formula (I) (8 mcg/ml), M 126): 2 µg/mL | MIC ([4]; agent alone, A. baumannii M 126): 32 µg/mL | MIC ([5]; read-out: MIC of Sulbactam, In presence of Compound of Formula (I) (4 mcg/ml), J 144): 2 µg/mL | MIC ([5]; read-out: MIC of Sulbactam, In presence of Compound of Formula (I) (8 mcg/ml), J 144): 1 µg/mL | MIC ([5]; agent alone, A. baumannii J 144): 16 µg/mL | MIC ([6]; NCTC13303, read-out: MIC of Sulbactam, In presence of Compound of Formula (I) (4 mcg/ml), NCTC 13303): 8 µg/mL | MIC ([6]; NCTC13303, read-out: MIC of Sulbactam, In presence of Compound of Formula (I) (8 mcg/ml), NCTC 13303): 4 µg/mL | MIC ([6]; NCTC13303, agent alone, A. baumannii NCTC 13303): 16 µg/mL | MIC ([7]; NCTC13305, read-out: MIC of Sulbactam, In presence of Compound of Formula (I) (4 mcg/ml), NCTC 13305): 2 µg/mL | MIC ([7]; NCTC13305, read-out: MIC of Sulbactam, In presence of Compound of Formula (I) (8 mcg/ml), NCTC 13305): 1 µg/mL | MIC ([7]; NCTC13305, agent alone, A. baumannii NCTC 13305): 4 µg/mL | MIC ([8]; NCTC13301, read-out: MIC of Sulbactam, In presence of Compound of Formula (I) (4 mcg/ml), NCTC 13301): 4 µg/mL | MIC ([8]; NCTC13301, read-out: MIC of Sulbactam, In presence of Compound of Formula (I) (8 mcg/ml), NCTC 13301): 2 µg/mL | MIC ([8]; NCTC13301, agent alone, A. baumannii NCTC 13301): 32 µg/mL | MIC ([9]; NCTC13302, read-out: MIC of Sulbactam, In presence of Compound of Formula (I) (4 mcg/ml), NCTC 13302): 4 µg/mL | MIC ([9]; NCTC13302, read-out: MIC of Sulbactam, In presence of Compound of Formula (I) (8 mcg/ml), NCTC 13302): 2 µg/mL | MIC ([9]; NCTC13302, agent alone, A. baumannii NCTC 13302): 32 µg/mL | MIC ([10]; read-out: MIC of Sulbactam, In presence of Compound of Formula (I) (4 mcg/ml), Q 1460648): 4 µg/mL | MIC ([10]; read-out: MIC of Sulbactam, In presence of Compound of Formula (I) (8 mcg/ml), Q 1460648): 2 µg/mL | MIC ([10]; agent alone, A. baumannii Q 1460648): 16 µg/mL | MIC ([11]; read-out: MIC of Sulbactam, In presence of Compound of Formula (I) (4 mcg/ml), G 156): 4 µg/mL | MIC ([11]; read-out: MIC of Sulbactam, In presence of Compound of Formula (I) (8 mcg/ml), G 156): 2 µg/mL | MIC ([11]; agent alone, A. baumannii G 156): 8 µg/mL
